The values below come from ChEMBL document CHEMBL1152311, “A multipronged approach to the study of peruvian ethnomedicinal plants: a legacy of the ICBG-Peru Project” (J Nat Prod, 2009).

The term IC50 denotes the concentration needed to halve the response being measured. A low value points to inhibition by little substance.

In this test the test system is Mycobacterium tuberculosis. Kind of test: Antituberculosis activity against multidrug-resistant Mycobacterium tuberculosis. The test is classed as functional, organism-based.

The compound `C[C@H](C/C=C\C(C)(C)OO)[C@H]1CC[C@@]2(C)[C@@H]3CC[C@H]4C(C)(C)[C@@H](O)CC[C@@]45C[C@@]35CC[C@]12C` came in with an IC50 of 27.3 µM.
